Consider 13 compounds from article PMC8658794, “Design, Synthesis, and Biological Evaluation of HDAC Degraders with CRBN E3 Ligase Ligands” (Molecules, 2021).

The target in assay [1] is T1, HDAC1 (Homo sapiens, UniProt Q13547). Briefly: In vitro HDAC inhibition assay (fluorogenic substrate), HDAC1. The arrangement: All three full-length rhHDACs were expressed in insect High5 cells using a baculoviral expression system; His6; GST; made in house; host or cells: insect High5 cells (baculovirus). It counts as biochemical. Particulars: recombinant human HDAC1; mean ± SD of three independent determinations. The method, then:
(§1) All three full-length rhHDACs were expressed in insect High5 cells using a baculoviral expression system, and all the His6-tagged and GST-fusion proteins were purified using Ni-NTA (QIAGEN). […] In brief, the HDAC assay mixture contained an HDAC substrate (5–50 μM, 5 μl), rhHDAC isoforms (20–200 nM) and an inhibitor (1 μl). The positive controls contained all the above components except the inhibitor. The negative controls contained neither an enzyme nor an inhibitor. The HDAC6 assay components were incubated at room temperature for 3 h, and HDAC 1 and 3 were incubated for 24 h. […] The plates were incubated for 30 min at room temperature to allow the fluorescence signal to develop.

Assay [2] has as its target T2, HDAC6 (Homo sapiens, UniProt Q9UBN7).
T2 sequence (Q9UBN7 1-1215): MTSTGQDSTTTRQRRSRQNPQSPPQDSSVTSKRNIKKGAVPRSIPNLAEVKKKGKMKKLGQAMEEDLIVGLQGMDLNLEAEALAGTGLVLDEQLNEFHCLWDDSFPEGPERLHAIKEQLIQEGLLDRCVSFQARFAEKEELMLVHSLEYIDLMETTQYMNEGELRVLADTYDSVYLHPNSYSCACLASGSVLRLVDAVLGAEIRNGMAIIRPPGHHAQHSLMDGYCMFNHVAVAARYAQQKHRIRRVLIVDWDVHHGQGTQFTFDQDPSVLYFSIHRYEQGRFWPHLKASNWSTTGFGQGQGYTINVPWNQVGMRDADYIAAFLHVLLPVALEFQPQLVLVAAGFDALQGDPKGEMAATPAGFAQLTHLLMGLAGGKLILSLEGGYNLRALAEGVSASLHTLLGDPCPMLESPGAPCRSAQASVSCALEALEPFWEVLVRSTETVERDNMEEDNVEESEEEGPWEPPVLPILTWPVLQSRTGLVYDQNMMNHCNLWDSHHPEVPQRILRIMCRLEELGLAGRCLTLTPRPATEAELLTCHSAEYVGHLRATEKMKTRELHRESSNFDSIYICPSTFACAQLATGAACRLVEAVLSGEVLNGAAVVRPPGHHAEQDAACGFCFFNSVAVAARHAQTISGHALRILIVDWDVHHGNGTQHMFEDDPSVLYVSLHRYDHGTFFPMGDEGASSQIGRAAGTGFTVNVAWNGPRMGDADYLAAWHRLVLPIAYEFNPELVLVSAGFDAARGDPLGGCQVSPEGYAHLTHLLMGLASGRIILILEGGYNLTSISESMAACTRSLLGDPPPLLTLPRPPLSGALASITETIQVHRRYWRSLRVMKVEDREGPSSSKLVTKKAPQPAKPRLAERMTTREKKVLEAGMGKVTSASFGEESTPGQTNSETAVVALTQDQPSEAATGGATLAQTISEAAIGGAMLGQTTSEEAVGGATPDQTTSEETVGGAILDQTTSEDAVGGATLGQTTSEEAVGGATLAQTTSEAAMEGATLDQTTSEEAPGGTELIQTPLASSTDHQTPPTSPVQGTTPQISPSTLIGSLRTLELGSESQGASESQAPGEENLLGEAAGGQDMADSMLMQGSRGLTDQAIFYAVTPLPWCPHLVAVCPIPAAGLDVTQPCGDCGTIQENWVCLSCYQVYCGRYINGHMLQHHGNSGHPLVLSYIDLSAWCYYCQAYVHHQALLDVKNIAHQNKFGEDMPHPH
Nature of the assay: In vitro HDAC inhibition assay (fluorogenic substrate), HDAC6. It counts as biochemical. The arrangement: All three full-length rhHDACs were expressed in insect High5 cells using a baculoviral expression system; His6; GST; made in house; host or cells: insect High5 cells (baculovirus). Particulars: recombinant human HDAC6; mean ± SD of three independent determinations. As for the experimental part: as §1

Assay [3] addresses T3, HDAC3 (Homo sapiens, UniProt O15379). Nature of the assay: In vitro HDAC inhibition assay (fluorogenic substrate), HDAC3. The arrangement: All three full-length rhHDACs were expressed in insect High5 cells using a baculoviral expression system; His6; GST; made in house; host or cells: insect High5 cells (baculovirus). Particulars: recombinant human HDAC3; mean ± SD of three independent determinations. It counts as biochemical. As for the experimental part: as §1
Target sequence in this assay (O15379 whole entry): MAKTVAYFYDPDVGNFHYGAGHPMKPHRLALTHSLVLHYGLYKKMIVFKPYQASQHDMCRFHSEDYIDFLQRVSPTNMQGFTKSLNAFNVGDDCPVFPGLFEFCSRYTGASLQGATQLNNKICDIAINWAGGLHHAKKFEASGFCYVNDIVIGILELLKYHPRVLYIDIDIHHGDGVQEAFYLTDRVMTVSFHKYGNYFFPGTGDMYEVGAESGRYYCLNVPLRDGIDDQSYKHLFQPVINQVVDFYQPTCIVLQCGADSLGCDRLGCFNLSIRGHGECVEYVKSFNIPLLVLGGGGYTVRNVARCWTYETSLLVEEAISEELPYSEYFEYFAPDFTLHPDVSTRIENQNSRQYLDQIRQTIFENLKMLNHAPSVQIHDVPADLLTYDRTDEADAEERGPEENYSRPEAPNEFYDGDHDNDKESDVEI
Target sequence in this assay (Q9Y618 395-489 partner limits assumed): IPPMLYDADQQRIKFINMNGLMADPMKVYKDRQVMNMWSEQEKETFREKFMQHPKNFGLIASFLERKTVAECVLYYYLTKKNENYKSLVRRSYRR

In assay [4] the test system is MM.1S cell line. Briefly: In vitro anti-proliferative activity, MTS assay. The note with it: for IC50: Homo sapiens, MM1.S. It counts as cell-based. As for the experimental part:
The cells were seeded in 96 well plates at a proper density in growth media. After 24 h, a range of concentrations of the test compounds was added and the plates were incubated at 37 °C for 72 h. The cell proliferation was determined by the MTS assay. After 3 h, the absorbance was collected using SpectraMAX 340. The IC50 values were calculated by fitting a concentration–response curve using a SoftMax pro-based four-parameter method.
Background: Tetrazolium assays rely on reduction of a dye to a coloured formazan, in cell work by metabolically active cells.

The target in assay [5] is T2, HDAC6. Nature of the assay: Western blot of HDAC6 protein level (degradation) in MM.1S cells. The note with it: 3 h; for degradation of HDAC6 (immunoblot): different concentrations. The arrangement: endogenous in cells; host or cells: MM.1S. It counts as cell-based. As for the experimental part:
(§2) The 2 × 10^6 MM.1S cells (multiple myeloma) were cultured in a cell culture plate and incubated for 1 h. Next, the MM.1S cells were treated with compounds at different concentrations for 3 h. Subsequently, the cells were collected, washed, lysed in a Ripa buffer containing a sample reducing agent, and analyzed using SDS/PAGE. Finally, the gel was blotted and the total HDAC levels were detected through standard Western blot.

Assay [6] concerns tubulin acetylation. Nature of the assay: Tubulin acetylation in MM.1S cells. It counts as cell-based.
For assay [7], the target named is T3, HDAC3. Briefly: Western blot of HDAC3 protein level (degradation) in MM.1S cells. Particulars: 3 h, different concentrations. The arrangement: endogenous in cells; host or cells: MM.1S. It counts as cell-based. As for the experimental part: as §2
For orientation: In western blotting, separated proteins are transferred to a membrane and probed.
Target sequence in this assay (O15379 whole entry): as the sequence (O15379 whole entry) above

The target of assay [8] is T1, HDAC1. Nature of the assay: Western blot of HDAC1 protein level (degradation) in MM.1S cells. It counts as cell-based. The arrangement: endogenous in cells; host or cells: MM.1S. Particulars: 3 h, different concentrations. The method, then: as §2
[9] abbreviates: MM.1S, 72 h, MTS, mean ± SD of three independent determinations, read-out: IC50 (μM ± SD) anti-proliferative activity against MM.1S cell line.

Structures are written as SMILES. Where two headings read alike, the source gives them in different places.

T1 sequence (Q13547 whole entry, the tested form may be a part, canonical isoform): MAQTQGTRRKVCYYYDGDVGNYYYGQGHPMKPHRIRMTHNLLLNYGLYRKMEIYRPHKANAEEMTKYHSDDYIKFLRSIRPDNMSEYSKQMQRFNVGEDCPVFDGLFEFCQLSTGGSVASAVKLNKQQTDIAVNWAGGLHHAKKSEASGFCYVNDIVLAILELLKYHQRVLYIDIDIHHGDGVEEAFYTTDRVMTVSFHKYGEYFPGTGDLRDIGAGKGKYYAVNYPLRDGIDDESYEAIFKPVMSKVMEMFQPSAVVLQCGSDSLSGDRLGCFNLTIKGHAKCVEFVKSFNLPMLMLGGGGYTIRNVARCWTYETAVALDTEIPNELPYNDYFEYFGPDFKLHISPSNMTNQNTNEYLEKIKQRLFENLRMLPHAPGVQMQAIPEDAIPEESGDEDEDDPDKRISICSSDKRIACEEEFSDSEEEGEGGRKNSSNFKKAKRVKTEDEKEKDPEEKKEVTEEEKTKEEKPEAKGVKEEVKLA

Turning to `O=C(CCCCCC(=O)Nc1cccc2c1CN(C1CCC(=O)NC1=O)C2=O)NO` (stereo not drawn) [9a, N^1-(2-(2,6-Dioxopiperidin-3-yl)-1-oxoisoindolin-4-yl)-N^7-hydroxyheptanediamide], the IC50 in assay [1] was 2.31 ± 0.46 µM; in assay [2], 1.98 ± 0.69 µM; in assay [3], 2.2 ± 0.29 µM.

For the compound `O=C(CCCCCCC(=O)Nc1cccc2c1CN(C1CCC(=O)NC1=O)C2=O)NO` (stereo not drawn) [9b, N^1-(2-(2,6-Dioxopiperidin-3-yl)-1-oxoisoindolin-4-yl)-N^8-hydroxyoctanediamide], the IC50 in assay [1] is 0.38 ± 0.14 µM; in assay [2], 1.46 ± 1.02 µM; in assay [4] (setting [9]), more than 10 µM; in assay [3], 0.47 ± 0.01 µM.

Regarding `O=C(CCCCCCCC(=O)Nc1cccc2c1CN(C1CCC(=O)NC1=O)C2=O)NO` (stereo not drawn) [9c, N^1-(2-(2,6-Dioxopiperidin-3-yl)-1-oxoisoindolin-4-yl)-N^9-hydroxynonanediamide], the IC50 in assay [1] worked out at 1.13 ± 0.03 µM; in assay [2], 3.67 ± 1.02 µM; in assay [3], 1.06 ± 0.2 µM.

For the compound `O=C(CCCCCCCCC(=O)Nc1cccc2c1CN(C1CCC(=O)NC1=O)C2=O)NO` (stereo not drawn) [9d, N^1-(2-(2,6-Dioxopiperidin-3-yl)-1-oxoisoindolin-4-yl)-N^10-hydroxydecanediamide], the half-maximal inhibitory concentration (IC50) in assay [1] amounted to 0.72 ± 0.18 µM; in assay [2], 2.94 ± 0.62 µM; in assay [3] it was 0.75 ± 0.06 µM.

`O=C(CCCCCCC(=O)Nc1cccc2c1C(=O)N(C1CCC(=O)NC1=O)C2=O)NO` (stereo not drawn) [9e, N^1-(2-(2,6-Dioxopiperidin-3-yl)-1,3-dioxoisoindolin-4-yl)-N^8-hydroxyoctanediamide]: the IC50 in assay [1] is 2.7 ± 0.36 µM; in assay [2], 0.42 ± 0.18 µM; in assay [4] (setting [9]) it was more than 10 µM; in assay [3], 0.33 ± 0.01 µM.

Take `O=C(CCCCCNC(=O)Nc1cccc2c1CN(C1CCC(=O)NC1=O)C2=O)NO` (stereo not drawn) [15a, 6-(3-(2-(2,6-Dioxopiperidin-3-yl)-1-oxoisoindolin-4-yl)ureido)-N-hydroxyhexanamide]: the results for the IC50 in assay [2], in assay [4] (setting [9]) and in assay [3] were 5.96 ± 1.43 µM, more than 10 µM and 0.27 ± 0.04 µM, respectively.

In the case of `O=C(CCCCCCNC(=O)Nc1cccc2c1CN(C1CCC(=O)NC1=O)C2=O)NO` (stereo not drawn) [15b, 7-(3-(2-(2,6-Dioxopiperidin-3-yl)-1-oxoisoindolin-4-yl)ureido)-N-hydroxyheptanamide], the IC50 came out at 0.57 ± 0.04 µM in assay [1], 1.67 ± 0.41 µM in assay [2] and 0.58 ± 0.04 µM in assay [3].

For the compound `O=C(CCCCCCCCNC(=O)Nc1cccc2c1CN(C1CCC(=O)NC1=O)C2=O)NO` (stereo not drawn) [15c, 9-(3-(2-(2,6-Dioxopiperidin-3-yl)-1-oxoisoindolin-4-yl)ureido)-N-hydroxynonanamide], the IC50 in assay [1] worked out at 0.82 ± 0.06 µM; in assay [2] it was 3.09 ± 0.54 µM; in assay [3], 0.96 ± 0.13 µM.

In the case of `O=C(CCCCCNC(=O)Nc1cccc2c1C(=O)N(C1CCC(=O)NC1=O)C2=O)NO` (stereo not drawn) [15d, 6-(3-(2-(2,6-Dioxopiperidin-3-yl)-1,3-dioxoisoindolin-4-yl)ureido)-N-hydroxyhexanamide], the IC50 in assay [1] is 0.44 ± 0.1 µM; in assay [2], 5.28 ± 1.42 µM; in assay [4] (setting [9]), more than 10 µM; in assay [3], 0.22 ± 0.02 µM.

On to `Nc1ccccc1NC(=O)c1ccc(COc2cccc3c2CN(C2CCC(=O)NC2=O)C3=O)cc1` (stereo not drawn) [21a, N-(2-Aminophenyl)-4-(((2-(2,6-dioxopiperidin-3-yl)-1-oxoisoindolin-4-yl)oxy)methyl)benzamide], for which the IC50 in assay [1] is 1.6 ± 0.54 µM; in assay [2] it was more than 20 µM; in assay [4] (MM.1S cells, printed beside the HDAC6 immunoblot, read-out: IC50 printed in the picture of Figure 4B), 0.04 µM; in assay [4] (setting [9]) it was 0.043 ± 0.02 µM; in assay [3] it was 0.56 ± 0.02 µM. Further, the “anti-proliferative potency relative to SAHA” value in assay [4] (MM.1S cell line) is recorded as “approximately five times more potent”. Further, in assay [5] (0.12 μM), the “HDAC6 degradation compared with HDAC1 and HDAC3 (immunoblot)” value is “superior HDAC6 degradation efficacies”. For the same compound, the “degradation of HDAC6 (immunoblot)” value in assay [5] was “dose-dependent manner”. The “increase in tubulin acetylation” value in assay [6] is reported as “not observed”.

On to `Nc1ccccc1NC(=O)c1ccc(COc2cccc3c2C(=O)N(C2CCC(=O)NC2=O)C3=O)cc1` (stereo not drawn) [21b, N-(2-Aminophenyl)-4-(((2-(2,6-dioxopiperidin-3-yl)-1,3-dioxoisoindolin-4-yl)oxy)methyl)benzamide], for which the IC50 in assay [1] is 1.2 ± 0.44 µM; in assay [2], more than 20 µM; in assay [4] (setting [9]), 0.541 ± 0.108 µM; in assay [3] it was 0.28 ± 0.04 µM. The “degradation of HDAC3 (immunoblot)” value in assay [7] is on record as “almost no degradation”. Also, in assay [8], the “degradation of HDAC1 (immunoblot)” value is “almost no degradation”. In addition, the “degradation of HDAC6 (immunoblot)” value in assay [5] is “almost no degradation”.

For the compound `O=C1CCC(N2Cc3c(OCc4ccc(C(=O)NO)cc4)cccc3C2=O)C(=O)N1` (stereo not drawn) [23a, 4-(((2-(2,6-Dioxopiperidin-3-yl)-1-oxoisoindolin-4-yl)oxy)methyl)-N-hydroxybenzamide], the IC50 was 8.32 ± 2.1 µM in assay [1], 0.38 ± 0.1 µM in assay [2], more than 10 µM in assay [4] (setting [9]) and 0.65 ± 0.03 µM in assay [3].

With `O=C1CCC(N2C(=O)c3cccc(OCc4ccc(C(=O)NO)cc4)c3C2=O)C(=O)N1` (stereo not drawn) [23b, 4-(((2-(2,6-Dioxopiperidin-3-yl)-1,3-dioxoisoindolin-4-yl)oxy)methyl)-N-hydroxybenzamide], the IC50 is 2.23 ± 0.3 µM in assay [1], more than 20 µM in assay [2], 1.34 ± 0.4 µM in assay [4] (setting [9]) and 0.76 ± 0.1 µM in assay [3]. Further, the “degradation of HDAC3 (immunoblot)” value in assay [7] is recorded as “almost no degradation”. Also, the “degradation of HDAC1 (immunoblot)” value in assay [8] is on record as “almost no degradation”. For the same compound, in assay [5], the “degradation of HDAC6 (immunoblot)” value was “almost no degradation”.

The term IC50 denotes the concentration at which inhibition is half-maximal.
